Laboratory results reported in patent US7226766B2, “S-methylcysteine, S-ethylcysteine, and related S-alkylthiols as antagonists to the effects of S-nitrosothiols and nitric oxide” (University of Iowa Research Foundation, priority 2001, dated 2007).

Key:
[1] = tested on: Sprague-Dawley rats treated with lipopolysaccharide (septic shock model); test: experimental model of septic shock: lipopolysaccharide-treated conscious rats, hemodynamic measurements and deaths; assay type: in vivo, rat; settings: for number of treated rats that died: lipopolysaccharide-treated rats, 22 rats received L-NAME, 12 rats S-methyl cysteine; for mean arterial pressure after treatment: rats 72 hours after lipopolysaccharide 0.5 mg/kg i.p., L-NAME 25 μmole/kg or S-methyl-L-cysteine 200 nmol/kg infusion for 10 minutes + 500 nmol/kg bolus; for total peripheral resistance after treatment (in words): L-NAME 25 μmole/kg or S-methyl-L-cysteine 200 nmol/kg infusion + 500 nmol/kg bolus
Protocol: Male 16 week old Sprague-Dawley rats were anesthetized for surgical placement of intraaortic pressure tranducers and Dopplar flow probes around the abdominal aorta and the left main coronary artery. After 48 hours of recovery baseline measurements of arterial blood pressure, cardiac output (as Dopplar flow), and coronary blood flow (Dopplar) were obtained in conscious unrestrained animals. The rats were then treated with intraperotoneal injections of purified lipopolysaccharide 0.5 mg/kg. After 72 hours when the induction of iNOS had produced a fall in blood pressure, measurements were repeated. Each rat then received either 25 μmole/kg of the nitric oxide synthase inhibitor L-NAME or an infusion of 200 nmol/kg of S-methyl-L-cysteine for 10 minutes followed by a 500 nmol/kg bolus dose of S-methyl-L-cysteine. The measurements were then repeated a third time.

[2] = tested on: hypotensive effects of infused S-nitrosocysteine; test: inhibition of the hypotensive effects of infused S-nitrosocysteine; settings: in vivo
[3] = rats 72 hours after lipopolysaccharide, L-NAME 25 μmole/kg
[4] = rats 72 hours after lipopolysaccharide

Compound: COC(=O)[C@@H](N)CCCNC(=N)N[N+](=O)[O-] [L-NAME, Nω-nitro-L-arginine methyl ester, reference compound]
- number of treated rats that died [1]: 7
- mean arterial pressure after treatment [1]: returned mean arterial pressure to baseline values
- coronary resistance after treatment [1, 3]: about 160 % of baseline values
- heart rate after treatment [1, 3]: about 60 % of the pre-treatment values
- total peripheral resistance after treatment [1, 3]: about 160 % of baseline values
- total peripheral resistance after treatment (in words) [1, 4]: increased total peripheral resistance far above normal
- coronary blood flow after treatment ([1]; rats 72 hours after lipopolysaccharide, L-NAME 25 μmole/kg, Doppler): about 60 % of the pre-treatment values
- cardiac output after treatment ([1]; rats 72 hours after lipopolysaccharide, L-NAME 25 μmole/kg, Doppler flow): about 60 % of the pre-treatment values

Compound: CSC[C@H](N)C(=O)O [S-methyl-L-cysteine]
- number of treated rats that died [1]: none died
- mean arterial pressure after treatment [1]: attenuated the hypotension induced by lipopolysaccharide
- mean arterial pressure after treatment ([1]; listed as S-methyl cysteine): returned mean arterial pressure to baseline values
- total peripheral resistance after treatment (in words) [1, 4]: returned to normal values
- coronary blood flow after treatment (in words) ([1]; rats 72 hours after lipopolysaccharide, S-methyl-L-cysteine 200 nmol/kg infusion for 10 minutes + 500 nmol/kg bolus): to pre-treatment values
- effect on the hypotensive effects of infused S-nitrosocysteine [2]: inhibit the hypotensive effects of infused S-nitrosocysteine
